The values below come from patent US11267861B2, “Peptide-oligourea foldamer compounds and methods of their use” (UREKA SARL, priority 2016, dated 2022).

For data set [1], the target named is T1, Leucyl aminopeptidase (EC 3.4.11.1) (Sus scrofa, UniProt P28839).
T1 construct: from porcine kidney (Sigma); chromatographically purified suspension; purchased Sigma; host or cells: porcine kidney
T1 sequence (P28839 1-519): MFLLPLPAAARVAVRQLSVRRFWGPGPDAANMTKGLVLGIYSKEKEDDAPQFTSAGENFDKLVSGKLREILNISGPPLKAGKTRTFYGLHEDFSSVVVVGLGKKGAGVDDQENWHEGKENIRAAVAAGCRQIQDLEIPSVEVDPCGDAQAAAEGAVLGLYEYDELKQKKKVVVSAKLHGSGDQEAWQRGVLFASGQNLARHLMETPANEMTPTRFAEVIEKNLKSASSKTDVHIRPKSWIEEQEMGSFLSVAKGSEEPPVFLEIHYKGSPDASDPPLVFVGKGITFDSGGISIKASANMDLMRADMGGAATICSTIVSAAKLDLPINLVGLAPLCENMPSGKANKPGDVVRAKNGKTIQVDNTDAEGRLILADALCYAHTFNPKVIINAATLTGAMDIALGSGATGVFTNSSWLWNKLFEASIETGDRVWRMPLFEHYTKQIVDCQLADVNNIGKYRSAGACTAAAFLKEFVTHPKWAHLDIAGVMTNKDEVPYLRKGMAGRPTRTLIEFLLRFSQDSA
Kind of data set: Enzymatic degradation by leucyl aminopeptidase. In kind it is in vitro ADME, porcine. Conditions: compared to the native peptides. Here is the method:
Enzymatic Degradation—Leucyl Aminopeptidase. Leucyl aminopeptidase (EC 3.4.11.1) from porcine kidney (Sigma); chromatographically purified suspension in 2.9 M (NH4)2SO4, 0.1 M Tris, 5 mM MgCl2 solution, pH 8.0; stock solution in PBS buffer (pH 7.2, 0.01 M). For each degradation experiment, stock solutions of the peptidic substrate and the enzyme were made using phosphate-buffered saline (PBS) buffer solution. […] The pH was adjusted either with NaOH (1 M) or with HCl (1 M) prior to use. A solution of the substrate in PBS buffer (pH 7.2, 0.01 M) and a solution of the required amount of enzyme, were mixed and incubated at 25° C. for 4 hours. Degradation was stopped with concentrated AcOH, and buffer solution was added so that the total volume reached 150 μL.
The resulting mixture was analyzed by reversed-phase HPLC. A mixture of CH3CN/H2O (0.1% TFA) was used as eluent. Gradients were 10% CH3CN to 100% CH3CN in 10 minutes. The flow rate, for all separations, was 1 mL·min^−1.

Data set [2] can be described thus: Solubility of glucagon analogs (UV absorbance).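 As to all read-outs here: peptide stock at 3 mg/ml in 0.01 M HCl, absorbance at 280 nm read before neutralization and again on the diluted supernatant after centrifugation.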 Conditions: for solubility: 0.01M HCl solution adjusted to pH 7 with Na2HPO4, pH 7, pH adjusted to 7 with Na2HPO4, incubated overnight at 4° C.; for ratio (solubility relative to reference compound 16): relative to compound 16. The format is physicochemical.
Procedure: A solution of 3 mg/ml of glucagon (or analog) was prepared in a 0.01M HCl solution. Then 0.1 ml of the stock solution was diluted to 1 ml with HCl (0.01M) and the UV absorbance measured (to 280 nm) with nanodrop UV spectrometer. The pH of the remaining stock solution was adjusted to 7 using Na2HPO4, and the solution was incubated overnight at 4° C. The solution was then centrifuged three times (5 minutes, 4000 rotations per minute), 0.1 ml of the supernatant was removed and diluted to 1 ml with HCl solution (0.01M).
The final UV absorbance was measured.
For another data set, the target named is T2, human glucagon receptor (Homo sapiens, UniProt P47871).
T2 construct: expressed in transfected cells; host or cells: CHO cells
Nature of the data set: Glucagon functional assay: agonist activity by cAMP production (HTRF) in transfected CHO cells. Conditions: cAMP production, transfected CHO cells, 10 minutes at 37° C. In kind it is cell-based. Here is the method:
Functional Assay to Examine Bioactivity of Glucagon Receptor Agonists. Evaluation of the agonist activity of compounds at the human glucagon receptor expressed in transfected CHO cells was examined by measuring their effects on cAMP production using the HTRF detection method. […] For stimulated control measurement, separate assay wells contain 100 nM glucagon were utilized.
Following incubation, the cells were lysed and the fluorescence acceptor (D2-labeled cAMP) and fluorescence donor (anti-cAMP antibody labeled with europium cryptate) were added. […] The results are expressed as a percent of the control response to 100 nM glucagon. The standard reference agonist is glucagon, which was tested in each experiment at several concentrations to generate a concentration-response curve from which its EC50 value was calculated.
HTRF (Homogeneous Time-Resolved Fluorescence) principle. The HTRF technology is based on time resolved fluorescence energy transfer (TR-FRET), which occurs between long-lived fluorophore Europium or Terbium Cryptates, and EuK or Tb respectively, as a donor and the allophycocyanin XL665, d2 or Red as acceptor. Many compounds and proteins present in biological fluids or serum are naturally fluorescent, and the use of conventional, prompt fluorescence leads to serious limitations in assay sensitivity. The use of long-lived fluorophore combined with time-resolved detection (a delay between excitation and emission detection) minimizes prompt fluorescence interference.
In general terms: cAMP levels reflect the balance of adenylyl cyclase and phosphodiesterase activity.

Structures are written as SMILES. Values after ≈ are worked out from the molar mass of the structure shown.

T2 sequence (P47871 26-477): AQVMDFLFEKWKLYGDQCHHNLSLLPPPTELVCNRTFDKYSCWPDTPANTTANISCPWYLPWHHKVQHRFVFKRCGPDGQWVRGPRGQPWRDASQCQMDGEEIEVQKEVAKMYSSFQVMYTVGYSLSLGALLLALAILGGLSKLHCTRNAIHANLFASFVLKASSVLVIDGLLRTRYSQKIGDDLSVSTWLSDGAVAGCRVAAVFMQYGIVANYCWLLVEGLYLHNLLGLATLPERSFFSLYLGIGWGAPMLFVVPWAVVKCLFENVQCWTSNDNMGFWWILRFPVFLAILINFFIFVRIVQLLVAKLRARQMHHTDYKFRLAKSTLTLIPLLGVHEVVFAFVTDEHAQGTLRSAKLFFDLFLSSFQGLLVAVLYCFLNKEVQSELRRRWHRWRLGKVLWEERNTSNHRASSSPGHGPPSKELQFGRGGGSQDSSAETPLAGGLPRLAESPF

For the compound `CCCC[C@H](NC(=O)[C@H](CC(C)C)NC(=O)[C@H](Cc1c[nH]c2ccccc12)NC(=O)[C@H](CCC(N)=O)NC(=O)[C@@H](NC(=O)[C@H](Cc1ccccc1)NC(=O)[C@H](CC(=O)O)NC(=O)[C@H](CCC(N)=O)NC(=O)[C@H](C)NC(=O)[C@H](CCCNC(=N)N)NC(=O)[C@H](CCCNC(=N)N)NC(=O)[C@H](CO)NC(=O)[C@H](CC(=O)O)NC(=O)[C@H](CC(C)C)NC(=O)[C@H](Cc1ccc(O)cc1)NC(=O)[C@H](CCCCN)NC(=O)[C@H](CO)NC(=O)[C@H](Cc1ccc(O)cc1)NC(=O)[C@H](CC(=O)O)NC(=O)[C@H](CO)NC(=O)[C@@H](NC(=O)[C@H](Cc1ccccc1)NC(=O)[C@@H](NC(=O)CNC(=O)[C@H](CCC(N)=O)NC(=O)[C@H](CO)NC(=O)NC[C@@H](N)Cc1c[nH]cn1)[C@@H](C)O)[C@@H](C)O)C(C)C)C(=O)N[C@@H](CC(N)=O)C(=O)N[C@H](C(=O)O)[C@@H](C)O` [Compound 17], in data set [1], the “stability (half-life) with leucyl aminopeptidase compared to native peptides” value was “more stable than the native peptides”.

`CCCC[C@H](NC(=O)[C@H](CC(C)C)NC(=O)[C@H](Cc1c[nH]c2ccccc12)NC(=O)[C@H](CCC(N)=O)NC(=O)[C@@H](NC(=O)[C@H](Cc1ccccc1)NC(=O)[C@H](CC(=O)O)NC(=O)[C@H](CCC(N)=O)NC(=O)[C@H](C)NC(=O)[C@H](CCCNC(=N)N)NC(=O)[C@H](CCCNC(=N)N)NC(=O)[C@H](CO)NC(=O)[C@H](CC(=O)O)NC(=O)[C@H](CC(C)C)NC(=O)[C@H](Cc1ccc(O)cc1)NC(=O)[C@H](CCCCN)NC(=O)[C@H](CO)NC(=O)[C@H](Cc1ccc(O)cc1)NC(=O)[C@H](CC(=O)O)NC(=O)[C@H](CO)NC(=O)[C@@H](NC(=O)[C@H](Cc1ccccc1)NC(=O)[C@@H](NC(=O)CNC(=O)[C@H](CCC(N)=O)NC(=O)NC[C@H](CO)NC(=O)[C@@H](N)Cc1c[nH]cn1)[C@@H](C)O)[C@@H](C)O)C(C)C)C(=O)N[C@@H](CC(N)=O)C(=O)N[C@H](C(=O)O)[C@@H](C)O` [Compound 18]: the “stability (half-life) with leucyl aminopeptidase compared to native peptides” value in data set [1] is “more stable than the native peptides”.

`CCCC[C@H](NC(=O)[C@H](CC(C)C)NC(=O)[C@H](Cc1c[nH]c2ccccc12)NC(=O)[C@H](CCC(N)=O)NC(=O)[C@@H](NC(=O)NC[C@H](Cc1ccccc1)NC(=O)[C@H](CC(=O)O)NC(=O)[C@H](CCC(N)=O)NC(=O)[C@H](C)NC(=O)[C@H](CCCNC(=N)N)NC(=O)[C@H](CCCNC(=N)N)NC(=O)[C@H](CO)NC(=O)[C@H](CC(=O)O)NC(=O)[C@H](CC(C)C)NC(=O)[C@H](Cc1ccc(O)cc1)NC(=O)[C@H](CCCCN)NC(=O)[C@H](CO)NC(=O)[C@H](Cc1ccc(O)cc1)NC(=O)[C@H](CC(=O)O)NC(=O)[C@H](CO)NC(=O)[C@@H](NC(=O)[C@H](Cc1ccccc1)NC(=O)[C@@H](NC(=O)CNC(=O)[C@H](CCC(N)=O)NC(=O)[C@H](CO)NC(=O)[C@@H](N)Cc1c[nH]cn1)[C@@H](C)O)[C@@H](C)O)C(C)C)C(=O)N[C@@H](CC(N)=O)C(=O)N[C@H](C(=O)O)[C@@H](C)O` [Compound 62]: in data set [2], the solubility (commonly how much of the substance goes into solution per volume) amounted to 680 µg/mL (≈ 195 µM) and the “ratio (solubility relative to reference compound 16)” value came out at 2.7. Besides, on human glucagon receptor, the response was half-maximal at 53 nM (EC50).

With `CCCC[C@H](NC(=O)[C@H](CC(C)C)NC(=O)[C@H](Cc1c[nH]c2ccccc12)NC(=O)[C@H](CCC(N)=O)NC(=O)NC[C@@H](NC(=O)[C@H](Cc1ccccc1)NC(=O)[C@H](CC(=O)O)NC(=O)[C@H](CCC(N)=O)NC(=O)[C@H](C)NC(=O)[C@H](CCCNC(=N)N)NC(=O)[C@H](CCCNC(=N)N)NC(=O)[C@H](CO)NC(=O)[C@H](CC(=O)O)NC(=O)[C@H](CC(C)C)NC(=O)[C@H](Cc1ccc(O)cc1)NC(=O)[C@H](CCCCN)NC(=O)[C@H](CO)NC(=O)[C@H](Cc1ccc(O)cc1)NC(=O)[C@H](CC(=O)O)NC(=O)[C@H](CO)NC(=O)[C@@H](NC(=O)[C@H](Cc1ccccc1)NC(=O)[C@@H](NC(=O)CNC(=O)[C@H](CCC(N)=O)NC(=O)[C@H](CO)NC(=O)[C@@H](N)Cc1c[nH]cn1)[C@@H](C)O)[C@@H](C)O)C(C)C)C(=O)N[C@@H](CC(N)=O)C(=O)N[C@H](C(=O)O)[C@@H](C)O` [Compound 63], in data set [2], the solubility was found to be 1280 µg/mL (≈ 366 µM) and the “ratio (solubility relative to reference compound 16)” value came out at 5.1. Besides, on human glucagon receptor, the midpoint of the response, the EC50, lay at 30 nM.

Turning to `CCCC[C@H](NC(=O)[C@H](CC(C)C)NC(=O)[C@H](Cc1c[nH]c2ccccc12)NC(=O)NC[C@H](CCC(N)=O)NC(=O)[C@@H](NC(=O)[C@H](Cc1ccccc1)NC(=O)[C@H](CC(=O)O)NC(=O)[C@H](CCC(N)=O)NC(=O)[C@H](C)NC(=O)[C@H](CCCNC(=N)N)NC(=O)[C@H](CCCNC(=N)N)NC(=O)[C@H](CO)NC(=O)[C@H](CC(=O)O)NC(=O)[C@H](CC(C)C)NC(=O)[C@H](Cc1ccc(O)cc1)NC(=O)[C@H](CCCCN)NC(=O)[C@H](CO)NC(=O)[C@H](Cc1ccc(O)cc1)NC(=O)[C@H](CC(=O)O)NC(=O)[C@H](CO)NC(=O)[C@@H](NC(=O)[C@H](Cc1ccccc1)NC(=O)[C@@H](NC(=O)CNC(=O)[C@H](CCC(N)=O)NC(=O)[C@H](CO)NC(=O)[C@@H](N)Cc1c[nH]cn1)[C@@H](C)O)[C@@H](C)O)C(C)C)C(=O)N[C@@H](CC(N)=O)C(=O)N[C@H](C(=O)O)[C@@H](C)O` [Compound 64], in data set [2], the solubility was found to be 940 µg/mL (≈ 269 µM) and the “ratio (solubility relative to reference compound 16)” value turned out to be 3.7. The EC50 (commonly the concentration that produces a half-maximal response) on human glucagon receptor is 0.16 nM.

With `CCCC[C@H](NC(=O)[C@H](CC(C)C)NC(=O)NC[C@H](Cc1c[nH]c2ccccc12)NC(=O)[C@H](CCC(N)=O)NC(=O)[C@@H](NC(=O)[C@H](Cc1ccccc1)NC(=O)[C@H](CC(=O)O)NC(=O)[C@H](CCC(N)=O)NC(=O)[C@H](C)NC(=O)[C@H](CCCNC(=N)N)NC(=O)[C@H](CCCNC(=N)N)NC(=O)[C@H](CO)NC(=O)[C@H](CC(=O)O)NC(=O)[C@H](CC(C)C)NC(=O)[C@H](Cc1ccc(O)cc1)NC(=O)[C@H](CCCCN)NC(=O)[C@H](CO)NC(=O)[C@H](Cc1ccc(O)cc1)NC(=O)[C@H](CC(=O)O)NC(=O)[C@H](CO)NC(=O)[C@@H](NC(=O)[C@H](Cc1ccccc1)NC(=O)[C@@H](NC(=O)CNC(=O)[C@H](CCC(N)=O)NC(=O)[C@H](CO)NC(=O)[C@@H](N)Cc1c[nH]cn1)[C@@H](C)O)[C@@H](C)O)C(C)C)C(=O)N[C@@H](CC(N)=O)C(=O)N[C@H](C(=O)O)[C@@H](C)O` [Compound 65], in data set [2], the solubility is 850 µg/mL (≈ 243 µM) and the “ratio (solubility relative to reference compound 16)” value came out at 3.4. At human glucagon receptor, this compound displayed an EC50 of 1.5 nM.
